Data as given in US20110009435A1, “HETERO BICYCLIC CARBOXAMIDE DERIVATIVES AND THEIR PHARMACEUTICAL USE AND COMPOSITIONS” (Pfizer, Inc., priority 2007, published 2011).

How the values were obtained:
Type in all cases: biochemical
[1] = biological target: T1, catalytic domain of human recombinant MMP-3 (Homo sapiens, UniProt P08254); experiment: In vitro MMP inhibition assay, MMP-3 catalytic domain (fluorogenic peptide substrate cleavage, Ki); settings: human MMP-3, catalytic domain (CD); read-out: hMMP Ki 03/CD
T1 construct: made in house
Outline: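 The MMP-3 catalytic domain was expressed in E. coli and refolded with zinc. It was preincubated with inhibitor for 1 hr at room temperature in MES buffer pH 6.0 with 1% DMSO, then 4 μM Mca/Dnp fluorogenic peptide was added (ex 330/em 420 nm). Ki came from Morrison-equation fits of rates, with substrate at or below Km and no substrate correction.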

Human recombinant MMP-13 = biological target: T2, Human recombinant MMP-13 (Homo sapiens, UniProt P45452); experiment: In vitro MMP inhibition assay, MMP-13 (fluorogenic peptide substrate cleavage, Ki); settings: human MMP-13, full length (FL); read-out: hMMP Ki 13/FL
T2 construct: made in house; host or cells: baculovirus expression (insect cells)
Outline: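 Baculovirus-expressed proenzyme, APMA- or trypsin-activated, preincubated 1 h at room temperature with inhibitor in pH 7.5 Tris/NaCl/CaCl2 buffer, 1% DMSO. Then 4 μM MCA/Dpa quenched peptide added; fluorescence rate read at 330/420 nm. Ki from Morrison-equation regression, substrate at or below Km, uncorrected.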

Human recombinant MMP-15 = biological target: T3, Human recombinant MMP-15 (Homo sapiens, UniProt P51511); experiment: In vitro MMP inhibition assay, MMP-15 catalytic domain (fluorogenic peptide substrate cleavage, Ki); settings: human MMP-15, catalytic domain (CD); read-out: hMMP Ki 15/CD
T3 construct: The catalytic domain of MMP-12 and MMP-15 enzymes were purchased commercially for these assays; purchased
Procedure: Matrix Metalloproteinase inhibitor compounds were analyzed in in vitro MMP Inhibition assays to determine their ability to inhibit the MMP cleavage of peptide substrates. Inhibition constants (Ki) were calculated from the assayed compound-MMP interactions.
Human recombinant MMP-1, MMP-2, MMP-3, MMP-7, MMP-9, MMP-12, MMP-13, MMP-14 and MMP-15 were used in these assays. The enzymes are prepared following known laboratory procedures. Protocols for the preparation and use of these enzymes are available in the scientific literature. See, e.g., Enzyme Nomenclature (Academic Press, San Diego, Calif., 1992) and the citations therein. See also Frije et al., J. Biol. Chem., 26(24), 16766-73 (1994).
The catalytic domain of MMP-12 and MMP-15 enzymes were purchased commercially for these assays.
The fluorogenic, methoxycoumarin-containing polypeptide substrate MCA-ArgProLeuGlyLeuDpaAlaArgGluArgNH2 was used as the MMP substrate in the MMP inhibition assays for human recombinant MMP-1, MMP-2, MMP-7, MMP-9, MMP-12, MMP-13, MMP-14 and MMP-15. Here, “MCA” is 7-methoxycoumarin-4-yl acetyl and “Dpa” is 3-(2,4-dinitrophenyl)-L-2,3-di-aminopropionyl group. In the absence of MMP inhibitory activity, the substrate is cleaved at the Gly-Leu peptide bond. The cleavage separates the highly fluorogenic peptide from the 2,4-dinitrophenyl quencher, resulting in an increase of fluorescent intensity.
For the human MMP-1, MMP-2, MMP-7, MMP-9, MMP-12, MMP-13, MMP-14 and MMP-15 assays, dilutions of the inhibitors (or salts thereof) were prepared in 100% dimethyl sulfoxide (DMSO). The stock solutions were diluted in Buffer A (100 mM Tris-HCl, 100 mM NaCl, 10 mM CaCl2, 0.005% polyoxyethylene 23 lauryl ether, pH 7.5) to obtain solutions with different compound concentrations, i.e., assay solutions with different concentrations of the assayed MMP inhibitory compound in 1% DMSO. The experiment controls contained the same amount of Buffer A/DMSO as the assayed sample, but contained no inhibitor.
To determine Ki, the inhibitor samples are incubated at room temperature for 1 hr in the presence of enzyme and then 4 μM of appropriate MMP substrate was added, and samples were analyzed on a Tecan SpectraFlour Plus plate reader. The excitation wavelength is 330 nm, and the emission (fluorescence) wavelength is 420 nm. In the absence of MMP inhibitory activity, the substrate is cleaved at the Gly-Leu bond resulting in an increase of relative fluorescence. Inhibition is observed as a reduced rate of increase in relative fluorescence.
The inhibitors are analyzed using a single low enzyme concentration with a single substrate concentration fixed at or below the Km. This protocol is a modification of method by Knight et al., FEBS Lett., 296(3), 263-266 (1992). Apparent inhibitory constants are determined by non-linear regression of reaction velocity as a function of inhibitor and enzyme concentration using Morrison's equation, as described by Kuzmic, Anal. Biochem. 286, 45-50 (2000). Modifications were made in the non-linear regression method to allow a common control reaction rate and effective enzyme concentration to be shared between all dose-response relationships on a given assay plate. Since the substrate concentration was chosen to be at or below the Km, the apparent Ki's from this analysis were reported as Ki's without correction for the influence of substrate.

T1 sequence (P08254 100-272 limits assumed): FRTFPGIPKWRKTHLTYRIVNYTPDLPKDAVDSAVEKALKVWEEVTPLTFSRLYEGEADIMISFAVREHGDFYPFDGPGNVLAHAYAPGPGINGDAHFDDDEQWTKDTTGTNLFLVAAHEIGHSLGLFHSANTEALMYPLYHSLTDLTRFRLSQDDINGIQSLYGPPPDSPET
T3 sequence (P51511 132-304 limits assumed): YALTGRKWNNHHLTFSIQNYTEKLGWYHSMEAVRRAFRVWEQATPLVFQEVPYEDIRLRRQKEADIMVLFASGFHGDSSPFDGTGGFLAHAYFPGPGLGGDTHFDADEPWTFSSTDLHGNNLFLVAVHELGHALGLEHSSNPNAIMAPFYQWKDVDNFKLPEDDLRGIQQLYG

Work on `COc1cccc(CNC(=O)c2nc3ccc(F)c(OCCC4CCN(C(=O)CO)CC4)c3c(=O)[nH]2)c1` [Example 34, 6-fluoro-5-[2-(1-glycoloylpiperidin-4-yl)ethoxy]-N-(3-methoxybenzyl)-4-oxo-3,4-dihydroquinazoline-2-carboxamide] yielded a Ki [1] of 1570 nM, a Ki (Human recombinant MMP-13) of 0.118 nM and a Ki (Human recombinant MMP-15) greater than 10000 nM.
